US10131652B2, “Pyrimidinyloxy benzene derivatives as herbicides” (E. I. DU PONT DE NEMOURS AND COMPANY, priority 2014, dated 2018)
Where two headings read alike, the source gives them in different places.

Assays:
Test in all cases: Test E pre-/postemergence plant response
Format in all cases: in vivo
[1] = tested on: chamomile (scentless chamomile, Matricaria inodora); conditions: Tripleurospermum inodorum, post-emergence, Postemergence, scale 0 to 100, read-out: Plant response rating, Chamomile
Procedure, shortened: (§1)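 Visual scores on a 0–100 scale (100 = complete control) were assigned against untreated controls 7–21 days after treatment in a controlled environment. Compounds, formulated with solvent plus surfactant, were applied to pre-emergence silt-loam sowings or to 1- to 4-leaf plants (2–18 cm) in potting medium.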

[2] = tested on: chickweed (common chickweed, Stellaria media); conditions: scale 0 to 100, read-out: Plant response rating, Chickweed; for pest or weed control at 16 g/ha: 16 g ai/ha; for pest or weed control at 31 g/ha: 31 g ai/ha; for pest or weed control at 62 g/ha: 62 g ai/ha; for pest or weed control at 125 g/ha: 125 g ai/ha
Procedure, shortened: as §1

[3] = tested on: field poppy (Papaver rhoeas); conditions: scale 0 to 100, read-out: Plant response rating, Field Poppy; for pest or weed control at 16 g/ha: 16 g ai/ha; for pest or weed control at 31 g/ha: 31 g ai/ha; for pest or weed control at 62 g/ha: 62 g ai/ha; for pest or weed control at 125 g/ha: 125 g ai/ha
Procedure, shortened: as §1

[4] = tested on: field violet (Viola arvensis); conditions: scale 0 to 100, read-out: Plant response rating, Field Violet; for pest or weed control at 16 g/ha: 16 g ai/ha; for pest or weed control at 31 g/ha: 31 g ai/ha; for pest or weed control at 62 g/ha: 62 g ai/ha; for pest or weed control at 125 g/ha: 125 g ai/ha
Procedure, shortened: as §1

[5] = tested on: galium (catchweed bedstraw, Galium aparine); conditions: scale 0 to 100, read-out: Plant response rating, Galium; for pest or weed control at 16 g/ha: 16 g ai/ha; for pest or weed control at 31 g/ha: 31 g ai/ha; for pest or weed control at 62 g/ha: 62 g ai/ha; for pest or weed control at 125 g/ha: 125 g ai/ha
Procedure, shortened: as §1

[6] = tested on: oilseed rape (Brassica napus); conditions: scale 0 to 100, read-out: Plant response rating, Oilseed Rape; for plant injury at 16 g/ha: 16 g ai/ha; for plant injury at 31 g/ha: 31 g ai/ha; for plant injury at 62 g/ha: 62 g ai/ha; for plant injury at 125 g/ha: 125 g ai/ha
Procedure, shortened: as §1

[7] = tested on: speedwell (bird's-eye speedwell, Veronica persica); conditions: scale 0 to 100, read-out: Plant response rating, Speedwell; for pest or weed control at 16 g/ha: 16 g ai/ha; for pest or weed control at 62 g/ha: 62 g ai/ha; for pest or weed control at 125 g/ha: 125 g ai/ha
Procedure, shortened: as §1

[8] = tested on: spring barley (Hordeum vulgare); conditions: for plant injury at 16 g/ha: 16 g ai/ha; for plant injury at 31 g/ha: 31 g ai/ha; for plant injury at 62 g/ha: 62 g ai/ha; for plant injury at 125 g/ha: 125 g ai/ha
Procedure, shortened: as §1

[9] = tested on: spring wheat (Triticum aestivum); conditions: scale 0 to 100, read-out: Plant response rating, Wheat, Spring; for plant injury at 16 g/ha: 16 g ai/ha; for plant injury at 62 g/ha: 62 g ai/ha; for plant injury at 125 g/ha: 125 g ai/ha
Procedure, shortened: as §1

[10] = tested on: wild buckwheat (Polygonum convolvulus); conditions: Fallopia convolvulus, scale 0 to 100, read-out: Plant response rating, Buckwheat, Wild; for pest or weed control at 16 g/ha: 16 g ai/ha; for pest or weed control at 31 g/ha: 31 g ai/ha; for pest or weed control at 62 g/ha: 62 g ai/ha; for pest or weed control at 125 g/ha: 125 g ai/ha
Procedure, shortened: as §1

[11] = tested on: wild mustard (Sinapis arvensis); conditions: Brassica, scale 0 to 100, read-out: Plant response rating, Mustard, Wild; for pest or weed control at 16 g/ha: 16 g ai/ha; for pest or weed control at 31 g/ha: 31 g ai/ha; for pest or weed control at 62 g/ha: 62 g ai/ha; for pest or weed control at 125 g/ha: 125 g ai/ha
Procedure, shortened: as §1

[12] = post-emergence, 31 g ai/ha, Postemergence
[13] = post-emergence, Postemergence, scale 0 to 100, read-out: Plant response rating, Barley, Spring
[14] = pre-emergence, Preemergence, scale 0 to 100, read-out: Plant response rating, Barley, Spring

Fc1cccc(Oc2ncc(Cl)cn2)c1-c1cc(C(F)F)on1 [Compound 55, 5-chloro-2-[2-[5-(difluoromethyl)-3-isoxazolyl]-3-fluorophenoxy]pyrimidine]
pest or weed control at 16 g/ha ([1]; 16 g ai/ha): 5%
pest or weed control at 31 g/ha ([1]; 31 g ai/ha): 5%
pest or weed control at 62 g/ha ([1]; 62 g ai/ha): 5%
pest or weed control at 125 g/ha ([1]; 125 g ai/ha): 5%
pest or weed control at 16 g/ha ([2]; post-emergence, Postemergence): 55%
pest or weed control at 31 g/ha ([2]; post-emergence, Postemergence): 55%
pest or weed control at 62 g/ha ([2]; post-emergence, Postemergence): 70%
pest or weed control at 125 g/ha ([2]; post-emergence, Postemergence): 70%
pest or weed control at 16 g/ha ([2]; pre-emergence, Preemergence): 65%
pest or weed control at 31 g/ha ([2]; pre-emergence, Preemergence): 100%
pest or weed control at 62 g/ha ([2]; pre-emergence, Preemergence): 100%
pest or weed control at 125 g/ha ([2]; pre-emergence, Preemergence): 100%
pest or weed control at 16 g/ha ([3]; post-emergence, Postemergence): 85%
pest or weed control at 31 g/ha ([3]; post-emergence, Postemergence): 90%
pest or weed control at 62 g/ha ([3]; post-emergence, Postemergence): 100%
pest or weed control at 125 g/ha ([3]; post-emergence, Postemergence): 95%
pest or weed control at 16 g/ha ([3]; pre-emergence, Preemergence): 100%
pest or weed control at 31 g/ha ([3]; pre-emergence, Preemergence): 100%
pest or weed control at 62 g/ha ([3]; pre-emergence, Preemergence): 100%
pest or weed control at 125 g/ha ([3]; pre-emergence, Preemergence): 100%
pest or weed control at 16 g/ha ([4]; post-emergence, Postemergence): 65%
pest or weed control at 31 g/ha ([4]; post-emergence, Postemergence): 70%
pest or weed control at 62 g/ha ([4]; post-emergence, Postemergence): 85%
pest or weed control at 125 g/ha ([4]; post-emergence, Postemergence): 90%
pest or weed control at 16 g/ha ([4]; pre-emergence, Preemergence): 70%
pest or weed control at 31 g/ha ([4]; pre-emergence, Preemergence): 80%
pest or weed control at 62 g/ha ([4]; pre-emergence, Preemergence): 100%
pest or weed control at 125 g/ha ([4]; pre-emergence, Preemergence): 100%
pest or weed control at 16 g/ha ([5]; post-emergence, Postemergence): 70%
pest or weed control at 31 g/ha ([5]; post-emergence, Postemergence): 85%
pest or weed control at 62 g/ha ([5]; post-emergence, Postemergence): 80%
pest or weed control at 125 g/ha ([5]; post-emergence, Postemergence): 85%
pest or weed control at 16 g/ha ([5]; pre-emergence, Preemergence): 10%
pest or weed control at 31 g/ha ([5]; pre-emergence, Preemergence): 100%
pest or weed control at 62 g/ha ([5]; pre-emergence, Preemergence): 70%
pest or weed control at 125 g/ha ([5]; pre-emergence, Preemergence): 100%
plant injury at 16 g/ha ([6]; post-emergence, Postemergence): 75%
plant injury at 31 g/ha ([6]; post-emergence, Postemergence): 75%
plant injury at 62 g/ha ([6]; post-emergence, Postemergence): 90%
plant injury at 125 g/ha ([6]; post-emergence, Postemergence): 95%
plant injury at 16 g/ha ([6]; pre-emergence, Preemergence): 20%
plant injury at 31 g/ha ([6]; pre-emergence, Preemergence): 100%
plant injury at 62 g/ha ([6]; pre-emergence, Preemergence): 100%
plant injury at 125 g/ha ([6]; pre-emergence, Preemergence): 100%
pest or weed control at 16 g/ha ([7]; post-emergence, Postemergence): 75%
pest or weed control at 31 g/ha [7, 12]: 80%
pest or weed control at 62 g/ha ([7]; post-emergence, Postemergence): 100%
pest or weed control at 125 g/ha ([7]; post-emergence, Postemergence): 100%
pest or weed control at 16 g/ha ([7]; pre-emergence, Preemergence): 100%
pest or weed control at 62 g/ha ([7]; pre-emergence, Preemergence): 100%
pest or weed control at 125 g/ha ([7]; pre-emergence, Preemergence): 100%
plant injury at 16 g/ha [8, 13]: 10%
plant injury at 31 g/ha [8, 13]: 10%
plant injury at 62 g/ha [8, 13]: 15%
plant injury at 125 g/ha ([8]; post-emergence, Postemergence, scale 0 to 100 (0 no effect, 100 complete control), read-out: Plant response rating, Barley, Spring): 20%
plant injury at 16 g/ha [8, 14]: 10%
plant injury at 31 g/ha [8, 14]: 10%
plant injury at 62 g/ha [8, 14]: 45%
plant injury at 125 g/ha [8, 14]: 50%
plant injury at 16 g/ha ([9]; post-emergence, Postemergence): 5%
plant injury at 31 g/ha [9, 12]: 15%
plant injury at 62 g/ha ([9]; post-emergence, Postemergence): 25%
plant injury at 125 g/ha ([9]; post-emergence, Postemergence): 45%
plant injury at 16 g/ha ([9]; pre-emergence, Preemergence): 15%
plant injury at 62 g/ha ([9]; pre-emergence, Preemergence): 15%
plant injury at 125 g/ha ([9]; pre-emergence, Preemergence): 35%
pest or weed control at 16 g/ha ([10]; post-emergence, Postemergence): 65%
pest or weed control at 31 g/ha ([10]; post-emergence, Postemergence): 95%
pest or weed control at 62 g/ha ([10]; post-emergence, Postemergence): 95%
pest or weed control at 125 g/ha ([10]; post-emergence, Postemergence): 95%
pest or weed control at 16 g/ha ([10]; pre-emergence, Preemergence): 65%
pest or weed control at 31 g/ha ([10]; pre-emergence, Preemergence): 100%
pest or weed control at 62 g/ha ([10]; pre-emergence, Preemergence): 100%
pest or weed control at 125 g/ha ([10]; pre-emergence, Preemergence): 100%
pest or weed control at 16 g/ha ([11]; post-emergence, Postemergence): 70%
pest or weed control at 31 g/ha ([11]; post-emergence, Postemergence): 85%
pest or weed control at 62 g/ha ([11]; post-emergence, Postemergence): 95%
pest or weed control at 125 g/ha ([11]; post-emergence, Postemergence): 95%
pest or weed control at 16 g/ha ([11]; pre-emergence, Preemergence): 80%
pest or weed control at 31 g/ha ([11]; pre-emergence, Preemergence): 100%
pest or weed control at 62 g/ha ([11]; pre-emergence, Preemergence): 100%
pest or weed control at 125 g/ha ([11]; pre-emergence, Preemergence): 100%
